ChEMBL document CHEMBL1201862, “PubChem BioAssay data set” (2004)
Where a name gives a salt, the structure may show the parent alone. Active and inactive are the calls of the source.

Columns and labels:
[1] = target: Arf-GAP with SH3 domain, ANK repeat and PH domain-containing protein 1 (Homo sapiens, UniProt Q9ULH1); assay type: functional;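 note: biochemical fluorescence polarization dose–response screen measuring inhibition of ASAP1; ASAP1 GAP domain stimulating GTP hydrolysis by truncated human ARF1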
Chain of Arf-GAP with SH3 domain, ANK repeat and PH domain-containing protein 1 (Q9ULH1 whole entry, the tested form may be a part): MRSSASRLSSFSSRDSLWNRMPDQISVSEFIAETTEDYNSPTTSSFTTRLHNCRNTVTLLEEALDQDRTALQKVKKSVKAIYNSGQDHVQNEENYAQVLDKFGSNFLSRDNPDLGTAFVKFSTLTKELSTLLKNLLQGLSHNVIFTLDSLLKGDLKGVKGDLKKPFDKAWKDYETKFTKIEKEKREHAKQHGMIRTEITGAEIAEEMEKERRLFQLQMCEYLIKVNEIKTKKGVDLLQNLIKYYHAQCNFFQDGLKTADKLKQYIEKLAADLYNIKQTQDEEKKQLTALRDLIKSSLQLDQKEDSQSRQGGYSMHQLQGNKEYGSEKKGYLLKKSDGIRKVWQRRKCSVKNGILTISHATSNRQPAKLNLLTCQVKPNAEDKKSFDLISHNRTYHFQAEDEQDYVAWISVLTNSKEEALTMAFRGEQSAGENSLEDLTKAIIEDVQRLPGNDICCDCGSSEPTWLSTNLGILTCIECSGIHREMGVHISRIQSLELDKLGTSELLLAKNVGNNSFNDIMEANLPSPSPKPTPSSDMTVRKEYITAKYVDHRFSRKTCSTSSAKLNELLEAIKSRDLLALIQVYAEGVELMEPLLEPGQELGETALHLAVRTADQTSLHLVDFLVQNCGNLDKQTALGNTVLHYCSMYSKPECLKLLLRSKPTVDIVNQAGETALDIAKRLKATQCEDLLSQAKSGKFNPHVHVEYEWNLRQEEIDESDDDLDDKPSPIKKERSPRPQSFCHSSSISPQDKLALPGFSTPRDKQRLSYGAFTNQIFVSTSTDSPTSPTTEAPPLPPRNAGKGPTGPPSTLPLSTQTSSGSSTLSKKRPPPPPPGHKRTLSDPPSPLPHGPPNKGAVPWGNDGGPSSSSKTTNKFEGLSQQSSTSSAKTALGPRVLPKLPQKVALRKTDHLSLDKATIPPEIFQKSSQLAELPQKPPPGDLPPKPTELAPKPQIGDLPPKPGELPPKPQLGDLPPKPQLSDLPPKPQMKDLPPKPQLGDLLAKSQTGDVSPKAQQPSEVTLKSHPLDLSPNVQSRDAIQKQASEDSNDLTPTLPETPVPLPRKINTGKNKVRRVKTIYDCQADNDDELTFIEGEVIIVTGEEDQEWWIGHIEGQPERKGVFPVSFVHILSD

Leucine aminopeptidase = target: T1, Leucine aminopeptidase (Plasmodium falciparum 3D7, UniProt Q8IL11); assay: P. falciparum M17LAP inhibitors, primary screen, biochemical, fluorogenic H-Leu-NHMec substrate, 1536-well (AID 1619); assay type: functional
T1 sequence (Q8IL11 whole entry): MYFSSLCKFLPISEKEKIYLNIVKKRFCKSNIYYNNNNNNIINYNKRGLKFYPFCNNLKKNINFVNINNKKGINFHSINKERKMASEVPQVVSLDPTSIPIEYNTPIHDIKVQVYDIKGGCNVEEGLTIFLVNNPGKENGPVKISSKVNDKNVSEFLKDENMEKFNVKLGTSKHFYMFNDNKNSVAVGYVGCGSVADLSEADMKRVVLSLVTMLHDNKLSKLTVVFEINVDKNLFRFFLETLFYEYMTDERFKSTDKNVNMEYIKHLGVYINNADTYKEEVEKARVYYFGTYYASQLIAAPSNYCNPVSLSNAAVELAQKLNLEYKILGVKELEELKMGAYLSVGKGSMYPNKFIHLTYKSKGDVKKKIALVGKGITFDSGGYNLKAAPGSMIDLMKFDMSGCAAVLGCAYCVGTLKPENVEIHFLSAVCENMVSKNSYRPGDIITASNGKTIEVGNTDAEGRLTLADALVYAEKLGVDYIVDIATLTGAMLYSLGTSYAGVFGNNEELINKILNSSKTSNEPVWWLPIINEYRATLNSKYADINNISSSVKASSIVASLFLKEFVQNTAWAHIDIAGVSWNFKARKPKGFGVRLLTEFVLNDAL

[2] = Counterscreen for inhibitors of Trypanosoma brucei methionyl tRNA synthetase (MetRS): Luminescence-based cell-based high throughput dose response assay to identify compounds that are cytotoxic to Jurkat human T lymphocyte cells.; assay type: functional
Mu-type opioid receptor = Mu-type opioid receptor (Homo sapiens, UniProt P35372); assay type: functional, cell-based;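 note: U2OS cells with beta-arrestin recruitment to OPRM1 by beta-gal complementation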
Chain of Mu-type opioid receptor (P35372 whole entry): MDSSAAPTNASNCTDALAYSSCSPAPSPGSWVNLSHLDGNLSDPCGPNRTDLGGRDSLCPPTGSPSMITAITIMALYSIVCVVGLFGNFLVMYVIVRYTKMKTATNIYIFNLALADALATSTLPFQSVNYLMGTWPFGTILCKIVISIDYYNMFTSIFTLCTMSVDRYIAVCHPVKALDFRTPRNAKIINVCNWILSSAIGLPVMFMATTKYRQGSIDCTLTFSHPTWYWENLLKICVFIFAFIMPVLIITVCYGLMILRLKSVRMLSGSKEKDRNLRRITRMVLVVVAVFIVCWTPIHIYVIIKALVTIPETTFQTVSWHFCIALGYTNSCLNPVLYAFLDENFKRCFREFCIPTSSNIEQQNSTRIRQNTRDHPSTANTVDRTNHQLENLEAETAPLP

[3] = Luminescence Cell-Based Dose Response HTS to Identify Activators of Luciferase Translation or Activity in H4 […] Cells. [Related pubchem assays: 1829 (Project Summary), 1814 (Primary HTS)]; assay type: functional
[4] = Luminescence Cell-Based Dose Confirmation HTS to Identify Activators of 5'UTR Stem-Loop Driven Alpha-Synuclein mRNA Translation in H4 Neuroglioblastoma Cells. [Related pubchem assays: 1829 (Project Summary), 1814 (Primary HTS)]; assay type: functional
[5] = target: T2, Aryl hydrocarbon receptor (Homo sapiens, UniProt P35869); assay: Luminescence-based cell-based high throughput dose response assay for activators of the Aryl Hydrocarbon Receptor (AHR). [Related pubchem assays: 2796 (Primary screen (AHR activators in singlicate)), 2845 (Confirmation screen (AHR activators in triplicate)), 434939 (Counterscreen (PXR activators in triplicate)), 2804 (Summary (AHR activators))]; assay type: ADME
T2 sequence (P35869 whole entry): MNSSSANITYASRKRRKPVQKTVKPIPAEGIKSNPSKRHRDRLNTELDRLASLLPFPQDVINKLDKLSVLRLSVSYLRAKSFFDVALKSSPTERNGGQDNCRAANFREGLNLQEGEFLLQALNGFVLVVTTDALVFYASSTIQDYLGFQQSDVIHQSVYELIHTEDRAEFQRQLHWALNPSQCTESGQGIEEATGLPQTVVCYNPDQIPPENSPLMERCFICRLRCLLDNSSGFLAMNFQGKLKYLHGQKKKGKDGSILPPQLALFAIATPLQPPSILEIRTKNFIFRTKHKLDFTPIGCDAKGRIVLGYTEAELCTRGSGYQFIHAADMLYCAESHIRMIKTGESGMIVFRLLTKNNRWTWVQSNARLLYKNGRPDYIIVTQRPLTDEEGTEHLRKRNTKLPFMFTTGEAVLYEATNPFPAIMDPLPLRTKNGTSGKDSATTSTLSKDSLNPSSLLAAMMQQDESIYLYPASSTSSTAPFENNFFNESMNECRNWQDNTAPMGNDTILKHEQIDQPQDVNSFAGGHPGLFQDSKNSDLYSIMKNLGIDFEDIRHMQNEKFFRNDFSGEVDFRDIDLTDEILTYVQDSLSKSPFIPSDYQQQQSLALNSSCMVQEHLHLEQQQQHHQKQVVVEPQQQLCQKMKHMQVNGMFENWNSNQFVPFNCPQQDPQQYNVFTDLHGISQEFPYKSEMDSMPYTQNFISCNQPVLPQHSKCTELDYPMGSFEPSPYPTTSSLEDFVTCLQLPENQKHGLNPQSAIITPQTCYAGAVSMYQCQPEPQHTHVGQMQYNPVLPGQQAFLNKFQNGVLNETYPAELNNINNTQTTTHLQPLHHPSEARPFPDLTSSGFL

[6] = target: T3, Sentrin-specific protease 8 (Homo sapiens, UniProt Q96LD8); assay type: functional
T3 sequence (Q96LD8 whole entry): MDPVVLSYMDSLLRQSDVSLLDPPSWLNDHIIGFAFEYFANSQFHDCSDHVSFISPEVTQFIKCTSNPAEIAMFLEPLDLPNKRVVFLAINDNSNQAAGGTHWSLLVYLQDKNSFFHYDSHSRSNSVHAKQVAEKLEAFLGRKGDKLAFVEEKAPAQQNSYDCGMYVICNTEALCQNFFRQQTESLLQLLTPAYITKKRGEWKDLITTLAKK

[7] = target: T3, Sentrin-specific protease 8; assay type: functional; remark: listed apart in the source
H4 = assay: Luminescence Cell-Based Dose Response HTS to Identify Activators of 5'UTR Stem-Loop Driven Prion Protein mRNA Translation in H4 Neuroglioblastoma Cells. [Related pubchem assays: 1829 (Project Summary), 1814 (Primary HTS)]; assay type: functional; conditions: Homo sapiens
Protein RecA = target: T4, Protein RecA (Mycobacterium tuberculosis, UniProt P9WHJ3); assay: Fluorescence Cell-Free Homogeneous Dose Retest to Identify Inhibitors of RecA-Intein Splicing Activity. [Related pubchem assays (depositor defined):AID2097, AID2223, AID489010, AID492950]; assay type: functional
T4 sequence (P9WHJ3 whole entry): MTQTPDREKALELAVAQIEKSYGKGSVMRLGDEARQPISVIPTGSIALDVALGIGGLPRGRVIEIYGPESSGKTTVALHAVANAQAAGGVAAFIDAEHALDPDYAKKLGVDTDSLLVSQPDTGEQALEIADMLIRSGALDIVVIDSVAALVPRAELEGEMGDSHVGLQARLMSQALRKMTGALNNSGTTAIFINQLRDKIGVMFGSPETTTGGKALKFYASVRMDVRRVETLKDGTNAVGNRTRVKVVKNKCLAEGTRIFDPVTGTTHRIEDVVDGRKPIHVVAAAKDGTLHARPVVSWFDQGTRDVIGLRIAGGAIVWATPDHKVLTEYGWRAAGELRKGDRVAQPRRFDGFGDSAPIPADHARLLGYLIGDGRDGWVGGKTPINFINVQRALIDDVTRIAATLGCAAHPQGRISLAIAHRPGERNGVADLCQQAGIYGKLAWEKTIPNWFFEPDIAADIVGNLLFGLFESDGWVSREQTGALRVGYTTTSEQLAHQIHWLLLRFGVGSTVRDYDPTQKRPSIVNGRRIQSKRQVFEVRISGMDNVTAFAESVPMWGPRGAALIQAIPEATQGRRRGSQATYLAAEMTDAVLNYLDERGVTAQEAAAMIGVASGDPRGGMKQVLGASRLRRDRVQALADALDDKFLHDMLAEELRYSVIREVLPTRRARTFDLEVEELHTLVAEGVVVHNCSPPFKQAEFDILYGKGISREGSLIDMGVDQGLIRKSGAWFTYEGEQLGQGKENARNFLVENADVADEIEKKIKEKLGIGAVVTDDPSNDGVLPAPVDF

[8] = HepG2 cell cytotoxicity, dose response, cytotoxicity control for Shn3 inhibitor project, CellTiter-Glo, cherry-picked (AID 624134); assay type: functional, cell-based
Beta Lactamase = Beta Lactamase (Pseudomonas aeruginosa, UniProt Q932Y6); assay: beta-lactamase reporter inhibitor potency, dose response, artefact control for NOD2-RIPK2 interaction inhibitor project, BLA reporter cells, FRET fluorescence (AID 651552); assay type: functional, cell-based
Chain of Beta Lactamase (Q932Y6 whole entry): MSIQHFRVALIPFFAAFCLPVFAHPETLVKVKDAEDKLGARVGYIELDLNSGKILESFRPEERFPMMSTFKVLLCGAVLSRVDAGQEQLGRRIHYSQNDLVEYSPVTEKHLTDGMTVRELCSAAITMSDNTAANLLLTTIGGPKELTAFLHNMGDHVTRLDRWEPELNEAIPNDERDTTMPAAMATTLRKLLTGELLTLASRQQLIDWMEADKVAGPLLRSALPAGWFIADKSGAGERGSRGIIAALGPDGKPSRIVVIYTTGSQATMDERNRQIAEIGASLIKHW

INS1 = assay: beta cell apoptosis inhibitors, cytokine rescue, dose response, luminescence, retest (AID 449756); assay type: functional, cell-based; conditions: Rattus norvegicus;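 note: cell death triggered by IL-1 beta plus TNF-alpha plus IFN-gamma mixture; protective hits raise ATP signal compared with cytokine alone wells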
[9] = target: Sphingosine 1-phosphate receptor 1 (Homo sapiens, UniProt P21453); assay type: functional;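 note: Tango beta-arrestin reporter U2OS cells stimulated with S1P near its EC80; inhibitor potency meaning antagonism of receptor activation by the natural agonist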
Chain of Sphingosine 1-phosphate receptor 1 (P21453 whole entry): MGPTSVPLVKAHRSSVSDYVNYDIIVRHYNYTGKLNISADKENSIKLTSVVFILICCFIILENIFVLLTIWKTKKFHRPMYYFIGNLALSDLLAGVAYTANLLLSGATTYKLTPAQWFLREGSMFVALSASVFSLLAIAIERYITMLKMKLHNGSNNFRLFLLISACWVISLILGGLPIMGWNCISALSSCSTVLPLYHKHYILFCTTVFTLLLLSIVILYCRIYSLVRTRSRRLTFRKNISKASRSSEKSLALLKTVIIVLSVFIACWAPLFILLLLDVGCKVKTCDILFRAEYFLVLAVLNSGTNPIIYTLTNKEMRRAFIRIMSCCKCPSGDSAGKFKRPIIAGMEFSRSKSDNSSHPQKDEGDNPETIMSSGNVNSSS

cells = assay type: functional
[10] = Shn3 3'UTR reporter inhibitors, dose response, cell-based, Clone20 osteoblasts, firefly luciferase, cherry-picked (AID 624132); assay type: functional;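 note: firefly luciferase luminescence from reporter carrying the Shn3 3'UTR in osteoblasts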
[11] = control 3'UTR Renilla luciferase suppression, dose response, counter-screen for Shn3 inhibitor project, cell-based, Clone20-Shn3RL, cherry-picked (AID 624133); assay type: functional
HEK293 [12] = assay: cells; conditions: Homo sapiens
[13] = Fluorescence-based cell-based high throughput dose response assay for inhibitors of the interaction of nucleotide-binding oligomerization domain containing 2 (NOD2) and the receptor-interacting serine-threonine kinase 2 (RIPK2).; assay type: functional; conditions: Homo sapiens
[14] = HepG2 cell cytotoxicity, dose response, cytotoxicity control for non-replicating M. tuberculosis project (AID 489018); assay type: functional; conditions: Mycobacterium tuberculosis
[15] = THP-1 cell cytotoxicity, dose response, cytotoxicity control for non-replicating M. tuberculosis project (AID 489025); assay type: functional
[16] = target: T5, Sphingosine 1-phosphate receptor 4 (Homo sapiens, UniProt O95977); assay: Fluorescence dose response cell-based high throughput screening assay for antagonists of the Sphingosine 1-Phosphate Receptor 4 (S1P4). [Related pubchem assays: 1524 (Confirmation in triplicates.), 1510 (Primary screen.)]; assay type: functional
T5 sequence (O95977 whole entry): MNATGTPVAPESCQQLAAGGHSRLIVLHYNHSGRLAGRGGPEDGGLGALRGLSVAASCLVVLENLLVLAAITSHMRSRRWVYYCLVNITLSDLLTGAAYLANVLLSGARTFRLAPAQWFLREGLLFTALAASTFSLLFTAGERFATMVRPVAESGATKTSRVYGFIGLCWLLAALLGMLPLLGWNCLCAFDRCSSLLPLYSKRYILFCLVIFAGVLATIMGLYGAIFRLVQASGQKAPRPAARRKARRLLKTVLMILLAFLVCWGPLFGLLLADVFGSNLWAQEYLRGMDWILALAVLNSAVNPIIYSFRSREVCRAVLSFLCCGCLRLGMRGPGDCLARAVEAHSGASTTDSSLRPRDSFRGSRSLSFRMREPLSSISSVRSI

HEK293 [17] = assay: cells; conditions: Homo sapiens; remark: listed apart in the source
[18] = Vero E6 cell cytotoxicity, dose response, cytotoxicity control for non-replicating M. tuberculosis project, secondary assay (AID 492998); assay type: functional, VeroE6; conditions: Vero C1008
[19] = target: T6, Replicative DNA helicase DnaB (Mycobacterium tuberculosis, UniProt P9WMR3); assay: DnaB intein splicing inhibitors, dose response, biochemical, cell-free fluorescence (AID 449749); assay type: functional
T6 sequence (P9WMR3 whole entry): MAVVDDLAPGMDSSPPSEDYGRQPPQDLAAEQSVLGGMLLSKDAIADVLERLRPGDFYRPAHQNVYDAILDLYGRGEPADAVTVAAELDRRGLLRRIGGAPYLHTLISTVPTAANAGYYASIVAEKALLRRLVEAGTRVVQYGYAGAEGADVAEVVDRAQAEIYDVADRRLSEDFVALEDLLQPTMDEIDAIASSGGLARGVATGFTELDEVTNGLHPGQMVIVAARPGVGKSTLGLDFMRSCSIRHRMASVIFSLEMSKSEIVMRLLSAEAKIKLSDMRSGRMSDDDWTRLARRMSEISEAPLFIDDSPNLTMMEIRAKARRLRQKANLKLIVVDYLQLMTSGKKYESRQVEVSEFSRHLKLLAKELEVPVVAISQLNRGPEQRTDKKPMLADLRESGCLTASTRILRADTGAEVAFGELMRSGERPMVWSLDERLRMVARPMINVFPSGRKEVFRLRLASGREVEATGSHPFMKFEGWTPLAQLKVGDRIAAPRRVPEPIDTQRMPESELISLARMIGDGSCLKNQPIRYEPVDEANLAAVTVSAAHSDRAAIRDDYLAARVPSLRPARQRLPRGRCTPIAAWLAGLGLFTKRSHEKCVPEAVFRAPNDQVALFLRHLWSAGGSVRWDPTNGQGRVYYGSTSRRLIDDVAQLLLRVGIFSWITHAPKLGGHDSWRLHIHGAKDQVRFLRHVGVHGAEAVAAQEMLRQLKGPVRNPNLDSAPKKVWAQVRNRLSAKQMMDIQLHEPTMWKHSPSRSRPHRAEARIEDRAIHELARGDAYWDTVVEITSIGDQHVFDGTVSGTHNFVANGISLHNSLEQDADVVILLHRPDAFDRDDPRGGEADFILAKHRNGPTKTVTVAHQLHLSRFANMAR

H9c2 = assay: cells; assay type: functional, cell-based; conditions: Rattus norvegicus, H9c2, Myocardium;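 note: confirmatory concentration-response retest of ultra-high-throughput screening hits for modulation of myocardial damage; cell death induced by hydrogen peroxide oxidative stress; compound pretreatment for 60 min then peroxide exposure for 2 h; potency is for protecting the cells against peroxide damage rather than for killing them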

Cc1ccc(NC(=O)CSc2ncccc2C(=O)Oc2cccc([N+](=O)[O-])c2)cc1Cl
IC50 [1]: 45.7 µM (inactive)
IC50 (Leucine aminopeptidase): 32 µM (active)

N#Cc1ccccc1CSc1nc2cc(Br)c[nH]c-2n1
IC50 [2]: 83.3 µM (inactive)

CC(C)[C@@]1(NC(=O)[C@@H]2C[C@@H]3c4cccc5[nH]cc(c45)C[C@H]3N(C)C2)O[C@@]2(O)[C@@H]3CCCN3C(=O)[C@H](Cc3ccccc3)N2C1=O [DIHYDROERGOCRISTINE MESYLATE]
EC50 (Mu-type opioid receptor): 92.5 µM (inactive)

O=C1c2ccccc2-c2nc3ccccc3nc21
EC50 [3]: 42.2 µM (active)
EC50 [4]: 0.307 µM (active)
EC50 [5]: 1.22 µM (active)
IC50 [6]: 5.17 µM (active)
IC50 [7]: 8.84 µM (active)
EC50 (H4): > 120 µM (not active)

CC1=NNC(=O)/C1=C\c1cn(-c2ccccc2)nc1-c1ccccc1
EC50 (Protein RecA): 0.978 µM (active)
AC50 [8]: 8.9 µM (active)
IC50 (Beta Lactamase): 49.8 µM (inactive)
AC50 (INS1): 7.76 µM (active)
IC50 [9]: 6.83 µM (active)
IC50 (cells): 20.6 µM (active)
AC50 [10]: 8.42 µM (active)
AC50 [11]: 9.3 µM (active)
EC50 (HEK293 [12]): > 59.7 µM (inactive)
IC50 [13]: 4.43 µM (active)
CC50 [14]: 13 µM (active)
CC50 [15]: 6.16 µM (active)
IC50 [16]: 2 µM (active)
EC50 (HEK293 [17]): > 59.7 µM (inactive)
CC50 [18]: 10.1 µM (active)
AC50 [19]: 1.92 µM (active)

c1ccc(-c2cc(-c3nnc4sc(-c5ccccn5)nn34)[nH]n2)cc1
IC50 [1]: 165 µM (inactive)
IC50 (H9c2): > 79 µM (inactive)
